Molecular target: T1, PfENT1 (Plasmodium falciparum, UniProt Q8IDM6)
T1 construct: expressed in transfected cells; host or cells: fui1Δ yeast (Saccharomyces cerevisiae), co-expressing GFP
Format: cell-based
Details: primary HTS, compounds at 10 μM, 125 μM 5-FUrd
Method in brief: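 fui1Δ yeast expressing PfENT1 and GFP were grown with 125 μM 5-fluorouridine, so growth reflects blocked 5-FUrd uptake. Compounds were screened at 10 μM. Growth scored by OD620 turbidity and GFP fluorescence, and hits had to be positive on both.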

T1 sequence (Q8IDM6 whole entry): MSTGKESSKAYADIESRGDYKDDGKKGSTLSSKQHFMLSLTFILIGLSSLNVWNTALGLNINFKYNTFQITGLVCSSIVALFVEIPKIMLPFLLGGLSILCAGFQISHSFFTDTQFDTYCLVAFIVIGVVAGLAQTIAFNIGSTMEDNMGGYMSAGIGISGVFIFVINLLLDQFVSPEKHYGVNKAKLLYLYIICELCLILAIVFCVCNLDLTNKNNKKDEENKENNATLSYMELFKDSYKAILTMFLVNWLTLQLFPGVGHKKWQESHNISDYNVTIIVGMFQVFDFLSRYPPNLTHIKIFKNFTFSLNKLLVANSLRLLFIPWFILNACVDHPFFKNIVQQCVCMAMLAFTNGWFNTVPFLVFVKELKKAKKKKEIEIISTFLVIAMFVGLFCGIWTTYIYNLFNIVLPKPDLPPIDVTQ

| SMILES | Avg Normalized % maximal activity [%] |
| --- | --- |
| COc1cc(C(=O)Nc2ccc(C(=O)c3cccs3)cc2)cc(OC)c1OC [compound 138, 3,4,5-trimethoxy-N-[4-(2-thienylcarbonyl)phenyl]benzamide] | 3.31 |
| Cc1cc(C)nc(NC(=O)c2cc3c(s2)CCCC3)n1 [compound 139, N-(4,6-dimethyl-2-pyrimidinyl)-4,5,6,7-tetrahydro-1-benzothiophene-2-carboxamide] | 3.27 |
| CCOc1ccc2c(C)cc(=O)oc2c1C [compound 140, 7-ethoxy-4,8-dimethyl-2H-chromen-2-one] | 3.21 |
| Cc1cc(-c2ccccc2)nc(SCc2nc3ccccc3c(=O)[nH]2)n1 [compound 141, 2-{[(4-methyl-6-phenyl-2-pyrimidinyl)thio]methyl}-4(3H)-quinazolinone] | 3.21 |
| COc1ccc(-c2nnc(SCc3csc(C)n3)o2)cc1OC [compound 142, 2-(3,4-dimethoxyphenyl)-5-{[(2-methyl-1,3-thiazol-4-yl)methyl]thio}-1,3,4-oxadiazole] | 3.09 |
| CC(=O)c1ccc(NC(=O)CSc2nnc3c4ccccc4n(C)c3n2)cc1 [compound 143, N-(4-acetylphenyl)-2-[(5-methyl-5H-[1,2,4]triazino [5,6-b]indol-3-yl)thio]acetamide] | 3.07 |
| Cc1cc2nc(Nc3nc(=O)c(C)c(C)[nH]3)nc(C)c2cc1C [compound 144, 5,6-dimethyl-2-[(4,6,7-trimethyl-2-quinazolinyl)amino]-4(1H)-pyrimidinone] | 3.04 |
| O=C(Nc1cccc(-c2nc3ncccc3o2)c1)c1ccc2c(c1)OCCO2 [compound 145, N-(3-[1,3]oxazolo[4,5-b]pyridin-2-ylphenyl)-2,3-dihydro-1,4-benzodioxine-6-carboxamide] | 3.02 |
| Br.Cc1ccnc(Nc2nc(-c3cccnc3)cs2)c1 [compound 146, 4-methyl-N-[4-(3-pyridinyl)-1,3-thiazol-2-yl]-2-pyridinamine hydrobromide] | 2.97 |
| CC(=O)c1ccc(NC(=O)CSc2nc3cc(C)ccc3[nH]2)cc1 [compound 147, N-(4-acetylphenyl)-2-[(5-methyl-1H-benzimidazol-2-yl)thio]acetamide] | 2.77 |
| O=C(Nc1sc2c(c1CNC1CCCCC1)CCCC2)c1ccccc1 [compound 148, N-{3-[(cyclohexylamino)methyl]-4,5,6,7-tetrahydro-1-benzothien-2-yl} benzamide] | 2.74 |
| Cc1ccc(C(=O)c2cccc(NC(=O)c3cccs3)c2)cc1C [compound 149, N-[3-(3,4-dimethylbenzoyl)phenyl]-2-thiophene-carboxamide] | 2.71 |
| Cn1c(=O)oc2cc(S(=O)(=O)Nc3ccccc3Br)ccc21 [compound 150, N-(2-bromophenyl)-3-methyl-2-oxo-2,3-dihydro-1,3-benzoxazole-6-sulfonamide] | 2.62 |
| O=C(O)c1ccc(S(=O)(=O)N(Cl)Cl)cc1 [compound 151] | 2.60 |
| COc1ccc(Cl)cc1C(=O)Nc1cc(C)ccn1 [compound 152, 5-chloro-2-methoxy-N-(4-methyl-2-pyridinyl)benzamide] | 2.56 |
| CN(C(=O)c1cc2c(=O)n3ccccc3nc2n1C)C1CCCCC1 [compound 153, N-cyclohexyl-N,1-dimethyl-4-oxo-1,4-dihydropyrido [1,2-a]pyrrolo[2,3-d] pyrimidine-2-carboxamide] | 2.37 |
| COc1ccc(NC(=O)C2CCN(C(=O)c3ccc(F)cc3)CC2)c(OC)c1 [compound 154, N-(2,4-dimethoxyphenyl)-1-(4-fluorobenzoyl)-4-piperidinecarboxamide] | 2.30 |

| SMILES | Avg Normalized % maximal activity [%] |
| --- | --- |
| CN1CCN(S(=O)(=O)c2ccc(C(=O)Nc3ccccc3)cc2)CC1 [compound 155, 4-[(4-methyl-1-piperazinyl)sulfonyl]-N-phenylbenzamide] | 2.20 |
| CCCCC(=O)Nc1ccc(NC(=O)c2cccs2)cc1OC [compound 156, N-[3-methoxy-4-(pentanoylamino)phenyl]-2-thiophenecarboxamide] | 2.17 |
| Cc1ccc(NC(=O)CSc2nc3cccnc3[nH]2)c(C)c1 [compound 157, N-(2,4-dimethylphenyl)-2-(3H-imidazo[4,5-b]pyridin-2-ylthio)acetamide] | 2.12 |
| COc1ccccc1C(=O)Nc1nnc(COc2ccc(C)cc2)s1 [compound 158, 2-methoxy-N-{5-[(4-methylphenoxy)methyl]-1,3,4-thiadiazol-2-yl}benzamide] | 2.12 |
| COc1cccc(C(CC(=O)O)S(C)(=O)=O)c1 (stereo not shown) [compound 159] | 2.12 |
| CC(=O)Nc1ccc2nc(SCC(=O)NC3CCCCC3)sc2c1 [compound 160] | 2.09 |
| CCOC(=O)CSc1nnc2c3ccccc3n(CC)c2n1 [compound 161] | 2.08 |
| COCc1cc(C)nc2sc(C(=O)Nc3ccc(NC(C)=O)cc3)c(N)c12 [compound 162, N-[4-(acetylamino)phenyl]-3-amino-4-(methoxymethyl)-6-methylthieno [2,3-b]pyridine-2-carboxamide] | 2.04 |
| COc1ccc(OC)c(NC(=O)COc2ccc3ccccc3c2)c1 [compound 163, N-(2,5-dimethoxyphenyl)-2-(2-naphthyloxy)acetamide] | 2.04 |
| O=[N+]([O-])c1ccc(C2Nc3c(F)cccc3C3C=CCC32)cc1 (stereo not shown) [compound 164, 6-fluoro-4-(4-nitrophenyl)-3a,4,5,9b-tetrahydro-3H-cyclopenta[c]quinoline] | 2.01 |
| CCC(C(=O)NCc1cccs1)c1ccccc1 (stereo not shown) [compound 165, 2-phenyl-N-(2-thienylmethyl)butanamide] | 2.01 |
| O=c1c2c3nc4ccccc4nc3n(Cc3ccco3)c2ncn1Cc1ccco1 [compound 166] | 1.98 |
| O=C(Nc1c(-c2ccccc2)nc2ccc(Cl)cn12)c1ccccc1 [compound 167, N-(6-chloro-2-phenylimidazo [1,2-a]pyridin-3-yl)benzamide] | 1.96 |
| CC(=O)Nc1ccc(NC(=O)CSc2nc3ccccc3s2)cc1 [compound 168, N-[4-(acetylamino)phenyl]-2-(1,3-benzothiazol-2-ylthio)acetamide] | 1.93 |
| Cc1ccc(NC(=O)Nc2ccc(F)cc2)nc1 [compound 169, N-(4-fluorophenyl)-N′-(5-methyl-2-pyridinyl)urea] | 1.85 |
| O=C(c1cc2nc3c(c(C(F)(F)F)n2n1)CCc1ccccc1-3)N1CCCC1 [compound 170, 10-(1-pyrrolidinyl-carbonyl)-7-(trifluoromethyl)-5,6-dihydrobenzo[h] pyrazolo[5,1-b] quinazoline] | 1.74 |
| COc1ccc(OC)c(NC(=O)CC2Nc3cc(C)c(C)cc3NC2=O)c1 (stereo not shown) [compound 171, N-(2,5-dimethoxyphenyl)-2-(6,7-dimethyl-3-oxo-1,2,3,4-tetrahydro-2-quinoxalinyl)acetamide] | 1.60 |

Reference: patent US9695193B2, “Inhibitors of Plasmodium falciparum equilibrative nucleoside transporter type I as anti-parasitic compounds” (The Trustees of Columbia University in the City of New York, priority 2013, dated 2017)
